Patent publication EP0427484B1, “Novel benzoxazolone compounds and the use thereof as microbicides” (ROHM AND HAAS COMPANY, priority 1989, dated 1991)
Values after ≈ are worked out from the molar mass of the structure shown.

Columns and labels:
Rhizoctonia solani = details: 25 ppm
Xanthomonas campestris = assay type: cell-based; details: in vitro, dose 25 ppm, relative to untreated check
Botrytis cinerea = details: 25 ppm
Fusarium roseum = assay type: cell-based; details: in vitro, dose 25 ppm, relative to untreated check
Piricularia oryzae [1] = assay type: cell-based; details: in vitro, dose 25 ppm, relative to untreated check
Cochliobolus sativus = details: 25 ppm
Phytophthora capsici = details: 25 ppm
[2] = tested on: Cloeophyllum trabeuor (G. trab.) - ATCC 11539; assay: MIC test, broth two-fold serial dilution; assay type: cell-based; details: complete inhibition of growth, read-out: MIC (ppm) for each compound
Description: (§1) Activity against certain bacteria and fungi was determined using a minimum inhibitory concentration (MIC) test, which establishes the minimum concentration of test compound required to achieve complete inhibition of growth of the test organism. An MIC value was obtained using a broth, two-fold serial dilution test performed as follows: […] A volume of the stock solution was dispensed into culture media to give an initial starting test concentration of 500 ppm compound. When the test was ready to be done, each vessel in the dilution series, except the first vessel, contained an equal volume of compound free broth. The first vessel contained twice the volume of broth with the starting concentration of test compound. One half of the broth from the first vessel was transferred to the second vessel. After being mixed, one half the resulting volume was removed from the second vessel and transferred to the third vessel. The entire cycle was repeated sufficiently to give a series of concentrations amounting to 500, 250, 125, 63, 31, 16, 8, and 4 ppm (or 25, 12.5, 6.2, 3.1, 1.6, 0.8, 0.4, 0.2), respectively. Each vessel was then inoculated with a cell suspension of the appropriate test organism. Bacteria were grown in broth and fungi on agar […] for a time and at a temperature appropriate to the species being tested. At the end of the growth period, the bacteria containing broth was vortexed to disperse the cells. In the case of fungi, the spores were harvested by pipetting water onto the slant and dislodging the spores with a sterile loop. The cell/spore suspension was standardized by controlling incubation time, temperature, and the volume of the diluent. The suspension was then used to inoculate the vessels containing the broth compound. The vessels were then incubated at the appropriate temperature. Alter the incubation, the vessels were examined for growth/no growth. The minimum inhibitory concentration (MIC) is defined as the lowest concentration of compound that results in complete inhibition of growth of the test organism. The organisms tested were bacteria Pseudomonas fluorescens (Ps.fl) - ATCC 948, Pseudomonas aeruginosa (Ps.ae) - ATCC 15442, Escherichia Coli (E.coli) - ATCC 11229, and Staphylococcus aureus (S.aur) - ATCC 6538; and fungi Aspergillus niger (A. niger) - ATCC 6275, Penicillium funiculosum (P. fun.) - ATCC 11797, Cladosporium resinae (A. res.) - ATCC 52833, Aureobasidium pullulans (A. pull.) - ATCC 9248, Cloeophyllum trabeuor (G. trab.) - ATCC 11539; and two yeasts Sacharomyces […].) - ATCC 560, and Rhorotorularubra (R. rubra) - ATCC 2503.

[3] = tested on: Aureobasidium pullulans (A. pull.) - ATCC 9248; assay: MIC test, broth two-fold serial dilution; assay type: cell-based; details: ATCC9248, complete inhibition of growth, read-out: MIC (ppm) for each compound
Description: as §1

[4] = tested on: Rhorotorularubra (R. rubra) - ATCC 2503; assay: MIC test, broth two-fold serial dilution; assay type: cell-based; details: complete inhibition of growth, read-out: MIC (ppm) for each compound
Description: as §1

[5] = tested on: Pseudomonas fluorescens (Ps.fl) - ATCC 948; assay: MIC test, broth two-fold serial dilution; assay type: cell-based; details: ATCC948, complete inhibition of growth, read-out: MIC (ppm) for each compound
Description: as §1

[6] = tested on: Sacharomyces cereresae (S. cer.) - ATCC 560; assay: MIC test, broth two-fold serial dilution; assay type: cell-based; details: complete inhibition of growth, read-out: MIC (ppm) for each compound
Description: as §1

[7] = tested on: Aspergillus niger (A. niger) - ATCC 6275; assay: MIC test, broth two-fold serial dilution; assay type: cell-based; details: ATCC6275, complete inhibition of growth, read-out: MIC (ppm) for each compound
Description: as §1

[8] = tested on: Pseudomonas aeruginosa (Ps.ae) - ATCC 15442; assay: MIC test, broth two-fold serial dilution; assay type: cell-based; details: ATCC15442, complete inhibition of growth, read-out: MIC (ppm) for each compound
Description: as §1

[9] = tested on: Staphylococcus aureus (S.aur) - ATCC 6538; assay: MIC test, broth two-fold serial dilution; assay type: cell-based; details: ATCC6538, complete inhibition of growth, read-out: MIC (ppm) for each compound
Description: as §1

[10] = tested on: Escherichia Coli (E.coli) - ATCC 11229; assay: MIC test, broth two-fold serial dilution; assay type: cell-based; details: ATCC11229, complete inhibition of growth, read-out: MIC (ppm) for each compound
Description: as §1

[11] = tested on: Cladosporium resinae (A. res.) - ATCC 52833; assay: MIC test, broth two-fold serial dilution; assay type: cell-based; details: Amorphotheca resinae, ATCC52833; Cl.res.; complete inhibition of growth; read-out: MIC (ppm) for each compound
Description: as §1

[12] = tested on: Penicillium funiculosum (P. fun.) - ATCC 11797; assay: MIC test, broth two-fold serial dilution; assay type: cell-based; details: Talaromyces funiculosus, ATCC11797, complete inhibition of growth, read-out: MIC (ppm) for each compound
Description: as §1

Pythium ultimum = details: 25 ppm
Septoria nodorum [13] = details: 25 ppm
Phytophthora infestans = assay type: in vivo; details: Pixie tomato plants, sprayed at 200 ppm before inoculation, four days after inoculation
Septoria nodorum [14] = assay: In vivo plant disease control test, wheat glume blotch (WGB)
[15] = tested on: Erysiphe graminis (f. sp. tritici); assay: In vivo plant disease control test, wheat powdery mildew (WPM)
[16] = tested on: Pseudoperonospora cubensis; assay: In vivo plant disease control test, cucumber downy mildew (CDM)
[17] = tested on: Puccinia recondita (f. sp. tritici Races PKB and PLD); assay: In vivo plant disease control test, wheat leaf rust (WLR); details: Fielder wheat, 200 ppm, scored after 10 days
Piricularia oryzae [18] = assay type: in vivo; details: Nato rice plants, sprayed at 200 ppm before inoculation, seven to eight days after inoculation

Compound | % DISEASE CONTROL RMI (Rhizoctonia solani) [%] | % DISEASE CONTROL XAN (Xanthomonas campestris) [%] | % DISEASE CONTROL BOC (Botrytis cinerea) [%] | % DISEASE CONTROL FUS (Fusarium roseum) [%] | % DISEASE CONTROL PIR (Piricularia oryzae [1]) [%] | % DISEASE CONTROL HEL (Cochliobolus sativus) [%] | % DISEASE CONTROL PHY (Phytophthora capsici) [%] | MIC [2] [µg/mL] | MIC [3] [µg/mL] | MIC [4] [µg/mL] | MIC [5] [µg/mL] | MIC [6] [µg/mL] | MIC [7] [µg/mL] | MIC [8] [µg/mL] | MIC [9] [µg/mL] | MIC [10] [µg/mL] | MIC [11] [µg/mL] | MIC [12] [µg/mL] | % DISEASE CONTROL PRU (Pythium ultimum) [%] | % DISEASE CONTROL SEP (Septoria nodorum [13]) [%] | other results
O=c1oc2cc(Cl)ccc2n1CC#CBr [Y=6-Cl, X=Br, 3-(3-bromopropargyl)-6-chloro-2-benzoxazolone] | 0 | 0 | 50 | 0 | 0 | 50 | 0 | > 25 | 32 (≈ 112 µM) | > 25 | > 250 | > 25 | 32 (≈ 112 µM) | > 250 | > 250 | > 250 | > 25 | > 25 | 50 | 0 | 
O=c1oc2ccccc2n1CC#CBr [Y=H, X=Br, 3-(3-bromopropargyl)-2-benzoxazolone] |  |  |  |  |  |  |  | > 25 | > 25 | > 25 | > 250 | > 25 | > 25 | > 250 | > 250 | > 250 | > 25 | > 25 |  |  | 
O=c1oc2ccccc2n1CC#CI [Y=H, X=I, 3-(3-iodopropargyl)-2-benzoxazolone] | 95 | 0 | 100 | 100 | 100 | 100 | 100 | ≤ 0.2 | 0.25 (≈ 0.836 µM) | ≤ 1 | > 250 | ≤ 1 | < 0.13 | > 250 | > 250 | > 250 | ≤ 5 | ≤ 1 | 100 | 100 | % DISEASE CONTROL TLB (Phytophthora infestans): 0%; % DISEASE CONTROL WGB (Septoria nodorum [14]): 0%; % DISEASE CONTROL WPM [15]: 90%; % DISEASE CONTROL CDM [16]: 50%; % DISEASE CONTROL WLR [17]: 90%; % DISEASE CONTROL RB (Piricularia oryzae [18]): 95%
O=c1oc2cc(Cl)ccc2n1CC#CI [Y=6-Cl, X=I, 3-(3-iodopropargyl)-6-chloro-2-benzoxazolone] | 100 | 0 | 100 | 100 | 100 | 100 | 100 | ≤ 1 | ≤ 1 | ≤ 1 | 16 (≈ 48 µM) | ≤ 5 | < 0.13 | > 250 | 16 (≈ 48 µM) | > 250 | ≤ 1 | ≤ 1 | 95 | 100 | 
